# “And” between values parts separate entries of the source, which are not always exact repeats. Equal entries are not always repeated.
# Experiments:
# [1] = system: promastigotes of clinical isolate of PKDL strain, BS12 of L. donovani; test: LDH cytotoxicity assay on promastigotes of clinical PKDL isolate BS12; assay type: cell-based; conditions: Leishmania donovani, LDH assay 72 h
# Procedure: Promastigote forms of L. donovani (MHOM/IN/1983/AG83) were cultured at 26°C in M199 (GIBCO, India), pH 7.4, supplemented with 10% (v/v) inactivated fetal bovine serum (FBS, GIBCO, India) and 0.02 mg/ml gentamycin (Life Technologies, USA). The clinical isolate of PKDL, BS12, was obtained as a gift from Prof. Mitali Chatterjee [Department of Pharmacology, Institute of Postgraduate Medical Education and Research (IPGMER), Kolkata, India]. […]
# AG83 strain of L. donovani were exposed to various Gly compound concentrations (100 nM–100 µM) in a 96-well microtiter plate (100 µl/well volume) and were incubated for 72 h at 26°C. […] The percent cytotoxicity of test compounds was calculated by normalizing with amphotericin B as 100%. Further percentage growth inhibition was calculated using the formula: […]
# We further evaluated the effect the Gly2 on the clinical isolate of PKDL strain, BS12 of L. donovani ([Sengupta et al., 2019]). […] Along with Gly2, we also evaluated the cytotoxic effects of 12 compounds on L. donovani promastigotes derived from clinical isolates of PKDL strain at 5 µM ( Supplementary Figure S2 ).
# [2] = MTT cell viability assay on macrophages; assay type: cell-based, murine; conditions: mouse, J774.A1 macrophage cells; Table 1; macrophages
# Procedure: (§1) The J774.A1 murine macrophage cells were grown in Roswell Park Memorial Institute (RPMI) 1640 medium in the presence of 10% (v/v) FBS and 100 U/ml penicillin−100 µg/ml streptomycin (Gibco, Invitrogen, Thermo Fisher Scientific, NY, USA) at 37°C (humidified) and 5% CO2. […] Madin–Darby canine kidney (MDCK) cells were obtained from the National Centre for Cell Science, Pune, India. MDCK cells were derived from the kidney tissue of an adult female Cocker Spaniel. These were grown in Dulbecco’s modified Eagle’s minimal essential medium (DMEM) in the presence of 10% (v/v) FBS and 100 U/ml penicillin−100 µg/ml streptomycin (Gibco, Invitrogen, Thermo Fisher Scientific, NY, USA) at 37°C (humidified) and 5% CO2 ([Ayana et al., 2018]; [Shivappagowdar et al., 2021]).
# (§2) All the compounds were dissolved in dimethyl sulfoxide (DMSO) (Sigma-Aldrich) for 1 mM stock solution and were screened against promastigotes at a concentration of 5 µM. For Glycosides (Gly) 2, 6, and 8, a range of concentrations starting from 100 nM to 100 µM were screened against promastigote forms of parasite and mammalian cells. Parasites (AG83 and PKDL strain) treated with amphotericin B (3 µg/ml) (Sigma-Aldrich) were maintained as the positive control.
# (§3) To evaluate the cytotoxic effects of 12 compounds on L. donovani promastigotes, LDH assay was performed. This assay involves the reduction of tetrazolium salts to formazan during LDH-mediated catalysis of lactate to pyruvate, which can be detected at […]. Rate of formazan formation is proportional to the release of LDH through damaged cell membranes. For the preliminary screening, the promastigotes were incubated with 12 compounds at a single concentration of 5 µM for a period of 72 h, and the released LDH was estimated ( Supplementary Figure S1A ). Amphotericin B-treated promastigotes were taken as the positive control. […] Having observed the antileishmanial effect of Gly2 on growth and proliferation of promastigotes, we next investigated the cytotoxicity of Gly2 on mammalian cells (MDCK, J774.1A) through MTT (3-(4, 5-dimethylthiazolyl-2)-2, 5-diphenyltetrazolium bromide) cell viability assay ( Supplementary Figures S1B, C ). […] The CC50 values of Gly2 analog was in the micromolar range. The selectivity index (SI) for the compound was calculated as the ratio between cytotoxicity (CC50) and activity (IC50) against promastigotes ( Table 1 ).
# [3] = system: J774.A1 murine macrophage cells; test: MTT cell viability assay on macrophages; assay type: cell-based; conditions: MTT assay
# Procedure: as §1, §2, §3
# [4] = system: L. donovani promastigotes; test: JC-1 mitochondrial membrane potential in promastigotes; assay type: cell-based, Leishmania donovani; conditions: treated promastigotes vs control, 24 h
# Procedure: Mitochondrial membrane (Δψm) potential was examined using 5,6-dichloro-2-[3-(5,6-dichloro-1,3-diethyl-1,3-dihydro-2H-benzimidazol-2-ylidene)-1propenyl]-1,3-diethyl-,iodide (JC-1 dye) (Life Technologies, USA) as a probe. Treated and untreated groups were incubated for 24 h. Cells were washed with PBS and JC-1 labeled, and samples were analyzed through FACS diva (Beckton-Dickinson, Pharmingen). The approximate fluorescence excitation/emission maxima of 514/529 nm for monomeric form and 585/590 nm for J-aggregate form were used. The labeled cells were also allowed to adhere to glass slides for visualization under fluorescence microscope (Nikon Ti eclipse, USA) ([Shivappagowdar et al., 2019]).
# [5] = system: L. donovani promastigotes; test: Hoechst/PI live/dead dual staining of promastigotes; assay type: cell-based, Leishmania donovani; conditions: 5 µM, 72 h
# Procedure: The toxic effect of the three compounds, Gly2, 6, and 8 on promastigotes at 5 µM >IC50 concentration was measured by Hoechst and propidium iodide (PI) double staining. […], parasites were harvested, washed in 0.01 M PBS (pH = 7.4), and stained with Hoechst 33258 (1 µg/ml) (Life Technologies, USA) and PI (5 µg/ml) (Life Technologies, USA) followed by incubation for a period of 20 min at 37°C. Subsequently, cells were washed for excessive stain removal and visualized using fluorescence microscope with 510–560-nm filter block for PI red fluorescence and excitation/emission spectra at 361/497 for Hoechst ([López-Arencibia et al., 2015]).
smiles,measurement,setting,value
CC(C)CCOC1O[C@H](CO)[C@@H](O)[C@H](O)[C@H]1O (some centres unmarked) [Gly2],IC50,[1],1.97 µM
same,CC50,[2],2900 µM
same,cytotoxicity in macrophage cells,[3],minimum level of cytotoxicity
same,mitochondrial uptake of JC-1 dye (ΔΨm),[4],significantly decreased
same,dead parasites (PI positive),[5],~ 94% and ~ 94.15% and ~ 90%

# — PMC9115111, “Metalloprotease Gp63-Targeting Novel Glycoside Exhibits Potential Antileishmanial Activity” (Frontiers in Cellular and Infection Microbiology, 2022)
